{"source": "patent US4060634A", "about": "(Boehringer Mannheim G.m.b.H., priority 1973, dated 1977)", "key": {"[1]": {"test": "Particle surface area (BET method)", "assay_type": "physicochemical", "conditions": "precipitated or ground glibenclamide product"}, "[2]": {"test": "Solubility of glibenclamide in water", "assay_type": "physicochemical"}, "blood sugar": {"test_system": "blood sugar", "conditions": "cited from earlier work"}}, "data": [{"smiles": "COc1ccc(Cl)cc1C(=O)NCCc1ccc(S(=O)(=O)NC(=O)NC2CCCCC2)cc1", "note": "[Example 3, glibenclamide]", "values": [{"measurement": "particle surface area", "setting": "[1]", "value": 6.0, "unit": "m^2 /g"}]}, {"smiles": "COc1ccc(Cl)cc1C(=O)NCCc1ccc(S(=O)(=O)NC(=O)NC2CCCCC2)cc1", "note": "[Example 1, glibenclamide]", "values": [{"measurement": "particle surface area", "setting": "[1]", "value": 5.79, "unit": "m^2 /g"}]}, {"smiles": "COc1ccc(Cl)cc1C(=O)NCCc1ccc(S(=O)(=O)NC(=O)NC2CCCCC2)cc1", "note": "[Example 5, glibenclamide]", "values": [{"measurement": "particle surface area", "setting": "[1]", "value": 10.3, "unit": "m^2 /g"}]}, {"smiles": "COc1ccc(Cl)cc1C(=O)NCCc1ccc(S(=O)(=O)NC(=O)NC2CCCCC2)cc1", "note": "[Example 2, glibenclamide]", "values": [{"measurement": "particle surface area", "setting": "[1]", "value": 9.8, "unit": "m^2 /g"}]}, {"smiles": "COc1ccc(Cl)cc1C(=O)NCCc1ccc(S(=O)(=O)NC(=O)NC2CCCCC2)cc1", "note": "[Example 6, glibenclamide]", "values": [{"measurement": "particle surface area", "setting": "[1]", "value": 5.2, "unit": "m^2 /g"}]}, {"smiles": "COc1ccc(Cl)cc1C(=O)NCCc1ccc(S(=O)(=O)NC(=O)NC2CCCCC2)cc1", "note": "[Example 7, glibenclamide]", "values": [{"measurement": "particle surface area", "setting": "[1]", "value": 7.8, "unit": "m^2 /g"}]}, {"smiles": "COc1ccc(Cl)cc1C(=O)NCCc1ccc(S(=O)(=O)NC(=O)NC2CCCCC2)cc1", "note": "[Example 8, glibenclamide]", "values": [{"measurement": "particle surface area", "setting": "[1]", "value": 5.8, "unit": "m^2 /g"}]}, {"smiles": "COc1ccc(Cl)cc1C(=O)NCCc1ccc(S(=O)(=O)NC(=O)NC2CCCCC2)cc1", "note": "[glibenclamide, N-4-[2-(5-chloro-2-methoxybenzamido)-ethyl]-phenyl-sulfonyl-N'-cyclohexylurea]", "values": [{"measurement": "solubility in water, pH of minimum", "setting": "[2]", "value": "reaches a minimum at a pH of 4"}, {"measurement": "blood sugar lowering action", "setting": "blood sugar; among sulfonylurea derivatives", "value": "greatest hitherto known blood sugar lowering action"}, {"measurement": "side effects", "setting": "blood sugar; in vivo", "value": "lowest degree of side effects"}]}, {"smiles": "COc1ccc(Cl)cc1C(=O)NCCc1ccc(S(=O)(=O)NC(=O)NC2CCCCC2)cc1", "note": "[Example 4, glibenclamide]", "values": [{"measurement": "particle surface area", "setting": "[1]", "value": 6.8, "unit": "m^2 /g"}]}]}
